Starred links: 1 amine or outer side, 2 acyl side, 3 side chain; linkers in the order of their positions; H or OH if unused. Non-standard residues stand in square brackets, D forms with d. Residues, ends and D or L forms follow the SMILES beside them. Groups on a side chain read outwards from the residue. *: point of attachment. DTPA = O=C(O)CN(CCN(CC(=O)O)CC(=O)O)CCN(CC(=O)O)CC(=O)*; NH(2-(imidazol-4-yl)ethyl) = c1ncc(CCN*)[nH]1; Suc = O=C(CCC(=O)[*:2])[*:1]
Experiments:
[1] = Stability of 111In IMP 272 in fresh human serum; type: in vitro ADME; conditions: 37° C.
Protocol: (§1) ^111InCl3 (30.4 μL) was added to 500 μL of DI H2O. This solution was added to the prepared vial of IMP 272 and allowed to sit for approximately 20 minutes at room temperature. An additional 600 μL of cold In Acetate Buffer (1.0×10^−4M InCl3, 0.5M NaOAc, pH 6.5) was then added to the same vial and allowed to sit for an additional 45 minutes. The total volume was 1130 μL with a molar quantity of […] of IMP 272 yielding a concentration of 8.777×10^−6M. After the labeling was completed, the peptide was tested for stability in fresh human and nude mouse serum over 24 hrs. The peptide was also tested for binding to humanized antibodies; m679×hMN14, and, m734×hMN14.
^111In IMP 272, 60 μL, was added to 540 μL fresh human serum. This was vortexed and placed under a constant temperature of 37° C. The peptide concentration for this mixture was 8.777×10^−7M.

[2] = Stability of 111In IMP 272 in fresh nude mouse serum; type: in vitro ADME; conditions: 37° C., 24 hr
Protocol: as §1
^111In IMP 272, 44 μL, was added to 400 μl fresh nude mouse serum. This was vortexed and placed under a constant temperature of 37° C. The peptide concentration for this mixture was 8.698×10^−7M.

[3] = Biodistribution in nude mice bearing GW-39 xenografts (lock and chase); type: in vivo; conditions: mouse, tumor (GW-39 xenograft), iv, 76 ng, total radioactivity, 3 hrs post-IMP-272, assumption, read-out: amount in tumor
Protocol: To study the half-life of a pretargeted defined chemical substance (DCS), known as IMP-272 on a tumor, the following experiment is performed in nude mice bearing GW-39 human colorectal cancer xenografts. Animals receive three injections as follows: first injection of anti-CEA BS1.5HP diabody (hMN-14×679) followed 24 hours later with IMP-272, which is followed 3 hours later by the anti-In-DTPA F(ab′)2 antibody, 734. BS1.5HP is labeled with ^125I and the IMP-272 is labeled with ^111In. The synthesis and use of this diabody is disclosed in Clin. Cancer Res. 9:3886s-3896s (2003), and is herein incorporated in its entirety by reference. Known standard molecular biology methods were used to prepare the BS1.5HP
To test for maximum cross-linking of peptide on the surface of the tumor, the total protein dose of 734 F(ab′)2 injected ranges from 10 μg to 100 μg. Four groups of mice are administered 10 μCi ^125I-BS1.5HP (27 μg, 5.0×10^−10 moles) followed 24 hours later by 25 μCi ^111In-IMP-272 (5.0×10^−11 moles) for a bispecific:IMP-272 ratio of 10:1. IMP-272 is administered 3 hours before the administration of 734 F(ab′)2 to target the tumor and clear from the blood. […]
At the specified necropsy time, 5 animals are anesthetized, bled by cardiac puncture followed by cervical dislocation. […] Tissues is counted in a calibrated gamma counter for ^111In and ^125I. […]

B-cell lymphoma = assay: Therapy of B-cell lymphoma patient with internalization by cross-linking; type: in vivo
Protocol: A patient having B-cell lymphoma with extensive node involvement is infused intraveneously with a sterile, pyrogen-free solution containing a target dose of bispecific hA20Fab-679scFv prepared as described in U.S. application Ser. Nos. 09/337,756 and 60/360,229. After 24 hours, the patient then is infused intraveneously with a sterile, pyrogen-free PBS solution that contains a therapeutic dose of DTPA-Gln-Ala-Lys(HSG)-D-[I-131Tyr]-Lys(HSG)-NH2. After 24 hours the patient then is intraveneously infused with 50 mg of sterile, pyrogen-free PBS solution of bispecific hLL1IgG[734scFv]. […] This administration is illustrated schematically in FIG. 6-9.

| Molecule | stability in human serum (conclusion) [1] | peptide state after incubation in human serum ([1]; 1 hour) | binding to HSG after incubation in human serum ([1]; 24 hr) | binding to one of the two HSG's compromised ([1]; 24 hr, size exclusion HPLC) | stability in mouse serum [2] | tissue uptake at 3 h [3] [%ID/g] | size of the lymphoma-involved nodes (B-cell lymphoma; CAT scans over the next few months) | localization and retention of I-131 in lymphoma involved nodes (B-cell lymphoma; radioimmunodetection) |
| --- | --- | --- | --- | --- | --- | --- | --- | --- |
| C[C@H](NC(=O)[C@H](CCC(N)=O)NC(=O)CN(CCN(CCN(CC(=O)O)CC(=O)O)CC(=O)O)CC(=O)O)C(=O)N[C@@H](CCCCNC(=O)CNC(=O)CCC(=O)NCCc1c[nH]cn1)C(=O)N[C@H](Cc1ccc(O)cc1)C(=O)N[C@@H](CCCCNC(=O)CNC(=O)CCC(=O)NCCc1c[nH]cn1)C(N)=O (111In complex, metal not drawn) [IMP 272, DTPA-Gln-Ala-Lys(HSG)-D-Tyr-Lys(HSG)-NH2] ({DTPA}-QAK([Gly-Suc-NH(2-(imidazol-4-yl)ethyl)])[dY]K([Gly-Suc-NH(2-(imidazol-4-yl)ethyl)])-NH2) | partially metabolized | intact | lost some of the binding to HSG | about 50% | stable | ~20 | – | – |
| DTPA-Gln-Ala-Lys(HSG)-D-[I-131Tyr]-Lys(HSG)-NH2 | – | – | – | – | – | – | significant reduction | intensive localization and long retention |
